Results on seven compounds are retold here after patent US20200262877A1, “ION CHANNEL-BINDING PEPTIDES AND METHODS OF USE THEREOF” (priority 2017, published 2020).

One data set concerns panel of 20 ion channels. Type of data set: cell-based. The note with it: for Activity on potassium channels: potassium channels of the panel; for Activity on potassium channels / Activity against additional potassium channels or serotonin receptors (e.g., 5-HT3a): 0.2 or 20 μM, FIG. 2. As to the method: This example describes a method for assaying ion channel activity in cells.
Peptides were screened in duplicate at final concentrations of 20 μM and 200 nM, as determined by amino acid analysis, and diluted into HEPES buffered physiological saline (HBPS). HEK293 or CHO cells from the American Type Culture Collection (ATCC) were transfected with the appropriate ion channel before use. HEK293 cells were grown in Dulbecco's Modified Eagle Medium/Nutrient Mixture F-12, and CHO cells were cultured in Ham's F-12 media. All cultures were supplemented with 10% fetal bovine serum, 100 U/ml penicillin G, 100 μg/ml streptomycin sulfate, and the appropriate selection antibiotics. Prior to use, cells were washed twice with Hank's Balanced Salt Solution, and treated with Accutase cell detachment solution (Sigma-Aldrich). Cells were then washed. Peptides and controls were incubated with cells for at least five minutes.
Percent inhibition was defined as: (1-(Ipeptide/Icontrol))×100%).
Percent values were calculated using the following formula: % activation=(IPeptide/Icontrol)×100%, where IPeptide is the current produced by co-application a peptide with agonist, and Icontrol refers to the current produced by stimulation in control. Control used for each ion channel is the reference compound matched to a particular channel, as illustrated in TABLE 10 below.

The target of data set [1] is T1, hERG (Homo sapiens, UniProt Q12809). The data set can be described thus: in vitro. The note with it: for activity at 20 µM: human. Put shortly: (§1)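 Peptides were tested in duplicate at final 20 μM and 200 nM, with concentration set by amino acid analysis, in HEPES-buffered saline. They were applied for at least 5 min to HEK293 or CHO cells transfected with each channel. Currents were expressed as % inhibition, 1-(Ipeptide/Icontrol)×100, or % activation, Ipeptide/Icontrol×100, against a channel-matched reference compound.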

The target of a further data set is Nav1.5 (Homo sapiens, UniProt Q14524). The data set can be described thus: in vitro. In short, it runs like this:
as §1

Another data set concerns the target T2, Nav1.7 (Homo sapiens, UniProt Q15858).
T2 construct: host or cells: HEK293 or CHO
The data set can be described thus: cell-based. Type of data set: cell-based. The note with it: read-out: Ion channel activity (ion channel inhibition).

A further data set concerns the target T3, Cav2.1 (Homo sapiens, UniProt O00555).
T3 construct: host or cells: HEK293 or CHO
The data set can be described thus: cell-based. The note with it: read-out: Ion channel activity (ion channel inhibition). Put shortly:
as §1

For another data set, the target named is T4, Cav2.2 (Homo sapiens, UniProt Q00975).
T4 construct: host or cells: HEK293 or CHO
The data set can be described thus: cell-based. The note with it: read-out: Ion channel activity (ion channel inhibition). In short, it runs like this:
as §1

A further data set deals with T5, Kv1.2 (Homo sapiens, UniProt P16389).
T5 construct: host or cells: HEK293 or CHO
The data set can be described thus: cell-based. Type of data set: cell-based. The note with it: Kv1.2, percentage of control, 100% = no change, read-out: Ion channel activity (ion channel inhibition); for activity at 20 µM: peptide at 20 μM. Put shortly:
as §1

The target of another data set is T6, Kv1.3 (Homo sapiens, UniProt P22001).
T6 construct: host or cells: HEK293 or CHO
The data set can be described thus: cell-based. The note with it: Kv1.3; peptide at 20 μM; percentage of control, 100% = no change; read-out: Ion channel activity (ion channel inhibition). Type of data set: cell-based. Put shortly: as §1

Data set [2] addresses T1, hERG. The note with it: cited from earlier work.
The target in data set [3] is Nav1.3 sodium channel (human SCN3A gene) (Homo sapiens, UniProt Q9NY46). The data set can be described thus: cell-based. Set-up: host or cells: CHO.
Data set [4] relates to calcium channels (ryanodine receptors). The note with it: prior reports; cited from earlier work.

Where two headings read alike, the source gives them in different places. Where a SMILES comes first, the peptide text is derived from it. Bridges are numbered along the chain shown (N, C = ends). Where no end group is shown, it is not given here.

T1 sequence (Q12809 whole entry): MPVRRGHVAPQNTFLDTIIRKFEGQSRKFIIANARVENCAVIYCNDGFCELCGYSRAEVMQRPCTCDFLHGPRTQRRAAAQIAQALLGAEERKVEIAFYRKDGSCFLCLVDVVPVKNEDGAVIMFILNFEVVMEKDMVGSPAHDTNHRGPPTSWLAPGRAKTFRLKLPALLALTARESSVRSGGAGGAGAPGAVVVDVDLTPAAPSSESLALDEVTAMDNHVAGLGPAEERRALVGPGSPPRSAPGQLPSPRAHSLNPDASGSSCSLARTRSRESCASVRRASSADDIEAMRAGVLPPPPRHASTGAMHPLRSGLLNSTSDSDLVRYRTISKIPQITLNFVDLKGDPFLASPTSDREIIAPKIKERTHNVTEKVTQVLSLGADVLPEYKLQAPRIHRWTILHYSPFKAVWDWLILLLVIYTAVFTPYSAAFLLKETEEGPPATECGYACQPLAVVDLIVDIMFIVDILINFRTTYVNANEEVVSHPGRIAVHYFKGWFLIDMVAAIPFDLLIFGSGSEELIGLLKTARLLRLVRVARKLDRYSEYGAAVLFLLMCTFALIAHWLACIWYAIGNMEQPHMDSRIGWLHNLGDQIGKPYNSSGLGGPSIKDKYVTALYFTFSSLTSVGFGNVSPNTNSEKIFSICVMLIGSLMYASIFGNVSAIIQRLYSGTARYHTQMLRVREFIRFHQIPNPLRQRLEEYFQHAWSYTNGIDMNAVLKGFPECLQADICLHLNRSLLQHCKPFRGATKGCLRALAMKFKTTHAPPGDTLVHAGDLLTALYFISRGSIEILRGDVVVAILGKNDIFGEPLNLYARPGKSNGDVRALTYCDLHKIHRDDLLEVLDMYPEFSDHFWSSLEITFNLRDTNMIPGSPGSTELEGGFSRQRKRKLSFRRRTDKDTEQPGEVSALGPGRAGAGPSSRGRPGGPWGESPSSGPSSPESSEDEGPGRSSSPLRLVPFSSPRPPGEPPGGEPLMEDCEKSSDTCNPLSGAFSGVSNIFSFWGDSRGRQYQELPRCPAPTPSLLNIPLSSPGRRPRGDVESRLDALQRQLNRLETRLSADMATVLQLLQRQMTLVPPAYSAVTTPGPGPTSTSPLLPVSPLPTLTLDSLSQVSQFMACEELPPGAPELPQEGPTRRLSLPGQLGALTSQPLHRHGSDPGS
T5 sequence (P16389 whole entry): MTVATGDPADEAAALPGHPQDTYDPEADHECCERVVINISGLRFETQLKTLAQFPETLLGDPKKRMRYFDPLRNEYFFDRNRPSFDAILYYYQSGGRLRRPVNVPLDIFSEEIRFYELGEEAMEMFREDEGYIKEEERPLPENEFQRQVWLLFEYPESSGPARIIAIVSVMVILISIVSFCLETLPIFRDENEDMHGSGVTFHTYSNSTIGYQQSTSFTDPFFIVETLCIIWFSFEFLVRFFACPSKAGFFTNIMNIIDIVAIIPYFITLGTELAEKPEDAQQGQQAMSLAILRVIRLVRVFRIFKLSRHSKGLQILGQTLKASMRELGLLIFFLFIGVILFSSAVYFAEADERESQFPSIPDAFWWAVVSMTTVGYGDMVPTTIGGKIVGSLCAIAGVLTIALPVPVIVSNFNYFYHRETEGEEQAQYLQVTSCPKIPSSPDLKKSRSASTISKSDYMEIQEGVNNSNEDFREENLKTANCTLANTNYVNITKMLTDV
Sequence of Nav1.3 sodium channel (human SCN3A gene) (Q9NY46 whole entry): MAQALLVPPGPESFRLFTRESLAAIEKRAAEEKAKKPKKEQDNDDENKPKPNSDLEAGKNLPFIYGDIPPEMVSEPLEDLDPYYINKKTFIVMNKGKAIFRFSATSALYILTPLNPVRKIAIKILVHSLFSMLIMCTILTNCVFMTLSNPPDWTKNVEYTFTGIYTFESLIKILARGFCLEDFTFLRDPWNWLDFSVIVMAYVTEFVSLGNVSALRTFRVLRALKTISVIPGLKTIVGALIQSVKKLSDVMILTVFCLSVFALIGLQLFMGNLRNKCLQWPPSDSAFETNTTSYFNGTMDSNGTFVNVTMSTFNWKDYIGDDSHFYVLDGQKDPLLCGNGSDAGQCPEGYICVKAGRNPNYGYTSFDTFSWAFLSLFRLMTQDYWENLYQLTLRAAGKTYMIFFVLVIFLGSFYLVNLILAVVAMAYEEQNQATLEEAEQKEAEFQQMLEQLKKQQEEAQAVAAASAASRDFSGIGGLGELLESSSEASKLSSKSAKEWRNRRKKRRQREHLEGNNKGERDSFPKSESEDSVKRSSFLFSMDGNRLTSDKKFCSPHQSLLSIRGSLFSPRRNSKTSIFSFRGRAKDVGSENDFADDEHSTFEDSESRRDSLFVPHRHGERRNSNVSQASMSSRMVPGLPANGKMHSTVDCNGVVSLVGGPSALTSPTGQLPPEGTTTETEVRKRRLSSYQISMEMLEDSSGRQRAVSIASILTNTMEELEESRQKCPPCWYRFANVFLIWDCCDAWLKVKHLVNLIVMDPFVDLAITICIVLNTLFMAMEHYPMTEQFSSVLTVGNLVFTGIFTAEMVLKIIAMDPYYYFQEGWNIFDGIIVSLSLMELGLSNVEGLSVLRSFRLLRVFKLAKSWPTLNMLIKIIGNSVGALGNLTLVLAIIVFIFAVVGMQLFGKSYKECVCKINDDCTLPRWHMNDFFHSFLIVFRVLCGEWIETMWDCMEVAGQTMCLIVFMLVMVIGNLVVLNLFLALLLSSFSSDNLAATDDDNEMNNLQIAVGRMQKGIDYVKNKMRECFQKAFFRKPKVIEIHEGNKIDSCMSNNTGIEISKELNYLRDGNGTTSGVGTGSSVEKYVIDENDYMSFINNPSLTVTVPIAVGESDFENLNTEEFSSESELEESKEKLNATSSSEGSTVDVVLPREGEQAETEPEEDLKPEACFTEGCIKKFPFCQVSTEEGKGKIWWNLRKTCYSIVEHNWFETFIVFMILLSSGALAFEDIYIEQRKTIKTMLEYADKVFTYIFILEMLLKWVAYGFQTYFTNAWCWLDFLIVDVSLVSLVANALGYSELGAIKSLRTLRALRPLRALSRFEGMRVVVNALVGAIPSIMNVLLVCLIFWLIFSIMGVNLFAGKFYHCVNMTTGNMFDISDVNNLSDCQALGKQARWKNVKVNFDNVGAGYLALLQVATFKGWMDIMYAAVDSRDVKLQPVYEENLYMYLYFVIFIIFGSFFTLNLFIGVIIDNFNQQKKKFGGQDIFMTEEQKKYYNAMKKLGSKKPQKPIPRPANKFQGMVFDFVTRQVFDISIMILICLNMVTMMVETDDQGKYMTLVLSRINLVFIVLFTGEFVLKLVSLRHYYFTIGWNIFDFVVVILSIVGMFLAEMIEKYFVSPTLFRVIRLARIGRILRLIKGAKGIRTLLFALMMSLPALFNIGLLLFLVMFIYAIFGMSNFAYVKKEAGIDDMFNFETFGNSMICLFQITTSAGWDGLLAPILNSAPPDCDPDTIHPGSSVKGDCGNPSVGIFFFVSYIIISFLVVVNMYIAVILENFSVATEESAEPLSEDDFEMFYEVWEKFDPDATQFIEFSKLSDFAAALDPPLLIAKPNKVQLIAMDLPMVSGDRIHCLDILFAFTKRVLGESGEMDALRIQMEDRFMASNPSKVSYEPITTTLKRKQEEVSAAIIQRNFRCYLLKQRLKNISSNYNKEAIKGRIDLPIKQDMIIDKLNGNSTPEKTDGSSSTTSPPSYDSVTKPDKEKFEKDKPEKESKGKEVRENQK
T6 sequence (P22001 whole entry): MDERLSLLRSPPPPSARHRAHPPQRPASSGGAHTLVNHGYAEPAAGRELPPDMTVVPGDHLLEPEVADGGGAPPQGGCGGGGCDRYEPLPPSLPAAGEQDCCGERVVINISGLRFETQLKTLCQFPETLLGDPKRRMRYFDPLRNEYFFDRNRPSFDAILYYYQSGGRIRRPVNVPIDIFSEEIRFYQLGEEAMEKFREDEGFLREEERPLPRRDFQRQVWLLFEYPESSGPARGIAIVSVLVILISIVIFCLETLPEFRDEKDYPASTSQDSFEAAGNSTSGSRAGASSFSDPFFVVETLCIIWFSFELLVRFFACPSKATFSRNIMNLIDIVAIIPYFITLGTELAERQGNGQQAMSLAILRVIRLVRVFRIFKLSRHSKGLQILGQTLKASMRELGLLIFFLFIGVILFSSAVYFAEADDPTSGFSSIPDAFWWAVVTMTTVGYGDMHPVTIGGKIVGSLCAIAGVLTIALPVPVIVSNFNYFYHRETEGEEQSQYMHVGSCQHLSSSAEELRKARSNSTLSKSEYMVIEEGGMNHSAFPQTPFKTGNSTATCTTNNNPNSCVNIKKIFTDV

With `CC[C@H](C)[C@@H]1NC(=O)[C@H](CC(N)=O)NC(=O)[C@H](CCCNC(=N)N)NC(=O)[C@@H]2CCCN2C(=O)[C@H](Cc2c[nH]c3ccccc23)NC(=O)[C@H](CCCCN)NC(=O)[C@H](CO)NC(=O)[C@H](CCCCN)NC(=O)[C@@H]2CSSC[C@@H]3NC(=O)[C@H](CCCCN)NC(=O)CNC(=O)[C@H](Cc4c[nH]c5ccccc45)NC(=O)[C@H](Cc4ccccc4)NC(=O)[C@H](CCCNC(=N)N)NC(=O)[C@H](C(C)C)NC(=O)[C@@H](NC(=O)[C@H](CC(=O)O)NC(=O)[C@H](CO)NC(=O)CN)CSSC[C@H](NC(=O)[C@H](CSSC[C@@H](C(=O)N[C@H](C(=O)N[C@@H](Cc4c[nH]c5ccccc45)C(=O)N[C@@H](CC(=O)O)C(=O)NCC(=O)N[C@@H](CO)C(=O)N[C@H](C(=O)NCC(=O)O)C(C)C)C(C)C)NC1=O)NC(=O)[C@H](CC(=O)O)NC(=O)[C@H](CO)NC(=O)[C@H]([C@@H](C)O)NC(=O)[C@H](CCC(N)=O)NC(=O)[C@H](CO)NC3=O)C(=O)N1CCC[C@H]1C(=O)N[C@@H](Cc1c[nH]cn1)C(=O)N[C@@H](CC(C)C)C(=O)N[C@@H](C)C(=O)N2` [SEQ ID NO: 7], the “Inhibition of voltage-sensitive calcium channels” value with panel of 20 ion channels is listed as “inhibited voltage-sensitive calcium channels”. For the same compound, the activity at 20 µM on hERG [1], on Nav1.5, on Nav1.7, on Cav2.1 and on Cav2.2 was under 50% each time.

For the compound `CC[C@H](C)[C@H](NC(=O)[C@H](CC(=O)O)NC(=O)[C@@H](NC(=O)[C@@H]1CCCN1C(=O)[C@H](CCCNC(=N)N)NC(=O)[C@H](CO)NC(=O)CN)[C@@H](C)O)C(=O)N[C@@H](CCCCN)C(=O)N[C@H]1CSSC[C@@H]2NC(=O)[C@H](CCCNC(=N)N)NC(=O)CNC(=O)[C@H](CC(N)=O)NC(=O)[C@H]([C@@H](C)O)NC(=O)[C@H](CCCCN)NC(=O)CNC(=O)[C@H](Cc3ccccc3)NC(=O)[C@H](CCCNC(=N)N)NC(=O)[C@H](CO)NC(=O)[C@H](CCCCN)NC(=O)[C@@H]3CSSC[C@@H](C(=O)N[C@@H](Cc4ccccc4)C(=O)O)NC(=O)[C@H](CC(=O)O)NC(=O)[C@H](CSSC[C@H](NC(=O)[C@H](CCC(N)=O)NC(=O)[C@H](Cc4ccc(O)cc4)NC(=O)[C@H](CO)NC(=O)[C@H](C)NC(=O)[C@H](CO)NC1=O)C(=O)N[C@@H](Cc1ccccc1)C(=O)N1CCC[C@H]1C(=O)N[C@@H](C(C)C)C(=O)N3)NC(=O)[C@H](CC(C)C)NC(=O)CNC(=O)[C@H](CC(N)=O)NC(=O)[C@H](C(C)C)NC2=O` [SEQ ID NO: 17] (H-GSRPTDIKCSASYQCFPVCKSRFGKTNGRCVNGLCDCF-OH; disulfide 9-30, 15-35, 19-37), the activity at 20 µM on Kv1.2, on Kv1.3 and on hERG [1] was under 50% in each case. On hERG [2], the “hERG inhibition or binding, previously reported” value is recorded as “previously been demonstrated to bind to hERG”. For the same compound, the “Activity against / inhibition of hERG (Kv11.1)” value at hERG [1] (0.2 or 20 μM, FIG. 2) is “confirmed hERG inhibition”.

As usually defined, the IC50 is the midpoint of a concentration-inhibition curve. As to `NC1=N[C@H](O)[C@H]2[C@H]3O[C@]4(O)O[C@@H]([C@@H](O)[C@@]2(N1)[C@@H]4O)[C@]3(O)CO` [TTX, Tetrodotoxin, reference compound], the IC50 in [3] (read-out: IC50 Nav1.3 ion channel inhibition, TP1) amounted to 0.033 µM; in [3] (read-out: IC50 Nav1.3 ion channel inhibition, TP2) it was 0.028 µM.

Regarding “GSDRDSCIDKSRCSKYGYYQECQDCCKKAGHNGGTCMFFKCKCA (disulfide 7-25, 13-36, 22-41, 26-43) [SEQ ID NO: 14]”, in the data set on panel of 20 ion channels, the “Activity on potassium channels” value is given as “showed activity against additional potassium channels”. The activity at 0.2 µM at Kv1.2 (peptide at 0.2 μM) was under 80%. The activity at 20 µM at Kv1.2 and on hERG [1] was under 50% in each case. The “hERG inhibition or binding, previously reported” value on hERG [2] is “previously reported to inhibit hERG channels”.

On to “GSGDCLPHLKRCKENNDCCSKKCKRRGANPEKRCR [SEQ ID NO: 11]”, for which, in the data set with panel of 20 ion channels, the “Activity against additional potassium channels or serotonin receptors (e.g., 5-HT3a)” value is reported as “showed activity against additional potassium channels or serotonin receptors (e.g., 5-HT3a)”. The “Inhibition of calcium channels (ryanodine receptors), reported” value in [4] was “reported to inhibit calcium channels (ryanodine receptors)”.

As for “GSSEKDCIKHLQRCRENKDCCSKKCSRRGTNPEKRCR [SEQ ID NO: 3]”, the “Activity against additional potassium channels or serotonin receptors (e.g., 5-HT3a)” value in the data set on panel of 20 ion channels is listed as “showed activity against additional potassium channels or serotonin receptors (e.g., 5-HT3a)”. Besides, the “Inhibition of calcium channels (ryanodine receptors), reported” value in [4] is “reported to inhibit calcium channels (ryanodine receptors)”.

Turning to “GSVVIGQRCYRSPDCYSACKKLVGKATGKCTNGRCDC [SEQ ID NO: 26]”, the “Activity on potassium channels” value in the data set with panel of 20 ion channels was “showed activity on various subsets of potassium channels”.
